Source: patent US20160158200A1, “Combinations of Hepatitis C Virus Inhibitors” (priority 2013, published 2016)

System: HCV genotype-1a variant with glutamine 30 changed to glutamate in the NS5A protein
Format: cell-based
Settings: test compound titrated with BMS-790052 fixed at 200 nM; genotype 1a Q30E replicon
Outline: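 Synergy was assessed by combining several fixed amounts of an NS5A-targeting compound with a titration of the second compound of interest.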

| SMILES | Fold-Synergistic 1a (Q30E) |
| --- | --- |
| CC(C)[C@H](NC(=O)c1cccc2ccccc12)c1ncc(-c2ccc(-c3ccc(-c4cnc([C@@H](NC(=O)c5cccc6ccccc56)C(C)C)[nH]4)cc3)cc2)[nH]1 [Compound S-86] | >100 fold |
| COC(=O)N(C)C(C)(C)C(=O)N[C@H](c1nc(-c2ccc(-c3ccc(-c4c[nH]c([C@@H](NC(=O)C(C)(C)N(C)C(=O)OC)C(C)(C)C)n4)cc3)cc2)c[nH]1)C(C)(C)C [Compound L-18] | >100 fold |
| CCCC(=O)N[C@H](c1ncc(-c2ccc(-c3ccc(-c4cnc([C@@H](NC(=O)CCC)C(C)C)[nH]4)cc3)cc2)[nH]1)C(C)C [Compound S-33] | >100 fold |
| CC(C)(C)C(=O)N[C@H](c1nc2ccc(-c3ccc(-c4ccc5nc([C@@H](NC(=O)C(C)(C)C)C(C)(C)C)[nH]c5c4)cc3)cc2[nH]1)C(C)(C)C.O=C(O)C(F)(F)F [Compound B33] | >100 fold |
| CC(C)(OCC(F)(F)F)C(=O)N[C@H](c1nc(-c2ccc(-c3ccc(-c4c[nH]c([C@@H](NC(=O)C(C)(C)OCC(F)(F)F)C(C)(C)C)n4)cc3)cc2)c[nH]1)C(C)(C)C [Compound Y-2] | >100 fold |
| CC(C)[C@H](NC(=O)C1(C#N)CC1)c1ncc(-c2ccc(-c3ccc(-c4cnc([C@@H](NC(=O)C5(C#N)CC5)C(C)C)[nH]4)cc3)cc2)[nH]1 [Compound S-54] | >100 fold |
| CC[C@@H](NC(=O)OC)C(=O)N[C@H](c1ncc(-c2ccc(-c3ccc(-c4cnc([C@@H](NC(=O)[C@@H](CC)NC(=O)OC)C(C)C)[nH]4)cc3)cc2)[nH]1)C(C)C [Compound P-104] | >100 fold |
| CC(C)(C(=O)N[C@H](c1nc(-c2ccc(-c3ccc(-c4c[nH]c([C@@H](NC(=O)C(C)(C)C(O)c5ccccc5F)C(C)(C)C)n4)cc3)cc2)c[nH]1)C(C)(C)C)C(O)c1ccccc1F (single isomer, unassigned) [Compound N-124A] | >100 fold |
| CC1(C)C2CCC(C(=O)N[C@H](c3nc(-c4ccc(-c5ccc(-c6c[nH]c([C@@H](NC(=O)C78CCC(C7)C(C)(C)C8O)C(C)(C)C)n6)cc5)cc4)c[nH]3)C(C)(C)C)(C2)C1O (single isomer, unassigned) [Compound Y-107] | >100 fold |
| CC(C)[C@H](NC(=O)C1(C)CC1)c1ncc(-c2ccc(-c3ccc(-c4cnc([C@@H](NC(=O)C5(C)CC5)C(C)C)[nH]4)cc3)cc2)[nH]1 [Compound S-1] | >100 fold |
| CC1(O)CC(C(=O)N[C@H](c2nc(-c3ccc(-c4ccc(-c5c[nH]c([C@@H](NC(=O)C6CC(C)(O)C6)C(C)(C)C)n5)cc4)cc3)c[nH]2)C(C)(C)C)C1 (single isomer, unassigned) [Compound W-169] | >100 fold |
| CC(C)[C@H](NC(=O)C(=O)c1ccncc1F)c1ncc(-c2ccc(-c3ccc(-c4cnc([C@@H](NC(=O)C(=O)c5ccncc5F)C(C)C)[nH]4)cc3)cc2)[nH]1 [Compound P-121] | >100 fold |
| CC(C)S(=O)(=O)CC(=O)N[C@H](c1nc(-c2ccc(-c3ccc(-c4cnc([C@@H](NC(=O)CS(=O)(=O)C(C)C)C(C)(C)C)[nH]4)cc3)cc2)c[nH]1)C(C)(C)C [Compound B-182] | >100 fold |
| Cc1cc(-c2ccc(-c3c[nH]c([C@@H](NC(=O)c4c(F)cccc4Cl)C(C)C)n3)cc2)ccc1-c1c[nH]c([C@@H](NC(=O)c2c(F)cccc2Cl)C(C)C)n1.O=C(O)C(F)(F)F [Compound N-81] | >100 fold |
| CC(C)CC(=O)NC(c1nc(-c2ccc(-c3ccc(-c4cn(C)c(C(NC(=O)CC(C)C)C(C)C)n4)cc3)cc2)cn1C)C(C)C.O=C(O)C(F)(F)F.O=C(O)C(F)(F)F (stereo not shown) [Compound Y-18] | <10 fold |
| CC(C)(C)[C@H](NC(=O)c1ccccc1OC(F)F)c1nc(-c2ccc(-c3ccc(-c4c[nH]c([C@@H](NC(=O)c5ccccc5OC(F)F)C(C)(C)C)n4)cc3)cc2)c[nH]1 [Compound P-25] | >100 fold |
| CC(C)[C@H](NC(=O)c1ccc(F)cc1)c1ncc(-c2ccc(-c3ccc(-c4cnc([C@@H](NC(=O)c5ccc(F)cc5)C(C)C)[nH]4)cc3)cc2)[nH]1 [Compound S-82] | >100 fold |
| CC(C)(F)C(NC(=O)C1CCC(F)(F)CC1)c1nc(-c2ccc(-c3ccc(-c4c[nH]c(C(NC(=O)C5CCC(F)(F)CC5)C(C)(C)F)n4)cc3)cc2)c[nH]1 (single isomer, unassigned) [Compound N-106C] | >100 fold |
| CC(C)(C)OC(=O)NC(C)(C)C(=O)N[C@H](c1nc(-c2ccc(-c3ccc(-c4c[nH]c([C@@H](NC(=O)C(C)(C)NC(=O)OC(C)(C)C)C(C)(C)C)n4)cc3)cc2)c[nH]1)C(C)(C)C [Compound L-3] | >100 fold |

| SMILES | Fold-Synergistic 1a (Q30E) |
| --- | --- |
| Cc1ccc(CC(=O)N[C@H](c2ncc(-c3ccc(-c4ccc(-c5cnc([C@@H](NC(=O)Cc6ccc(C)cc6)C(C)C)[nH]5)cc4)cc3)[nH]2)C(C)C)cc1 [Compound S-42] | >100 fold |
| COC(=O)N1C2CCC1(C(=O)N[C@H](c1nc(-c3ccc(-c4ccc(-c5c[nH]c([C@@H](NC(=O)C67CCC(CC6)N7C(=O)OC)C(C)(C)C)n5)cc4)cc3)c[nH]1)C(C)(C)C)CC2.O=C(O)C(F)(F)F.O=C(O)C(F)(F)F [Compound W-117] | >100 fold |
| CC(C)(C)[C@H](NC(=O)C1(C2(O)CCC(F)(F)CC2)CC1)c1ncc(C#Cc2ccc3cc(-c4cnc([C@@H](NC(=O)C5(C6(O)CCC(F)(F)CC6)CC5)C(C)(C)C)[nH]4)ccc3c2)[nH]1 [Compound B5B] | >100 fold |
| CC1([C@H](NC(=O)C2(C)CCCC[C@@H]2O)c2ncc(-c3ccc(-c4ccc(-c5cnc([C@@H](NC(=O)C6(C)CCCC[C@@H]6O)C6(C)CC6)[nH]5)cc4)cc3)[nH]2)CC1 (stereo partly shown) [Compound Y-116] | >100 fold |
| CC(C)(C)C(NC(=O)C1CC(=O)N(c2ccccc2O)C1)c1nc(-c2ccc(-c3ccc(-c4c[nH]c(C(NC(=O)C5CC(=O)N(c6ccccc6O)C5)C(C)(C)C)n4)cc3)cc2)c[nH]1 (mixture of isomers) [Compound S-265] | >100 fold |
| CC(C)(C)[C@H](NC(=O)C1CCC(C(F)F)CC1)c1nc(-c2ccc(-c3ccc(-c4c[nH]c([C@@H](NC(=O)C5CCC(C(F)F)CC5)C(C)(C)C)n4)cc3)cc2)c[nH]1 (stereo partly shown) [Compound Y-71] | >100 fold |
| CC1CN(C(=O)C(=O)N[C@H](c2nc(-c3ccc(-c4ccc(-c5c[nH]c([C@@H](NC(=O)C(=O)N6CC(C)OC(C)C6)C(C)(C)C)n5)cc4)cc3)c[nH]2)C(C)(C)C)CC(C)O1 (single isomer, unassigned) [Compound W-40A] | >100 fold |
| Cc1cc(-c2ccc(-c3c[nH]c([C@@H](NC(=O)C4(C)CCC(F)(F)CC4)C(C)C)n3)cc2)ccc1-c1c[nH]c([C@@H](NC(=O)C2(C)CCC(F)(F)CC2)C(C)C)n1.O=C(O)C(F)(F)F [Compound N-84] | >100 fold |
| CC(CO)(OCCF)C(=O)N[C@H](c1nc(-c2ccc(-c3ccc(-c4c[nH]c([C@@H](NC(=O)C(C)(CO)OCCF)C(C)(C)C)n4)cc3)cc2)c[nH]1)C(C)(C)C (single isomer, unassigned) [Compound W-271] | >100 fold |
| C[C@H]1CCN(C(=O)C2CCC(F)(F)CC2)C1c1nc(-c2ccc(-c3ccc(-c4c[nH]c([C@@H]5[C@@H](C)CCN5C(=O)C5CCC(F)(F)CC5)n4)cc3)cc2)c[nH]1 (stereo partly shown) [Compound W-188] | >10 fold |
| CC(C)C(=O)N[C@H](c1ncc(-c2ccc(-c3ccc(-c4cnc([C@@H](NC(=O)C(C)C)C(C)C)[nH]4)cc3)cc2)[nH]1)C(C)C [Compound S-7] | >100 fold |
| CC(C)(F)C(=O)N[C@H](c1ncc(-c2ccc(-c3ccc(-c4cnc([C@@H](NC(=O)C(C)(C)F)C5(C)CC5)[nH]4)cc3)cc2)[nH]1)C1(C)CC1 [Compound Y-36] | >100 fold |
| C[C@@H]1CN(C(=O)C(=O)N[C@H](c2nc(-c3ccc(-c4ccc(-c5c[nH]c([C@@H](NC(=O)C(=O)N6C[C@@H](C)O[C@@H](C)C6)C6(C)CC6)n5)cc4)cc3)c[nH]2)C2(C)CC2)C[C@H](C)O1 [Compound W-61] | >100 fold |
| CCOc1ccccc1C(=O)N[C@H](c1nc(-c2ccc(-c3ccc(-c4c[nH]c([C@@H](NC(=O)c5ccccc5OCC)C(C)(C)C)n4)cc3)cc2)c[nH]1)C(C)(C)C [Compound P-29] | >100 fold |
| CC1([C@H](NC(=O)C2(CO)CC(F)(F)C2)c2nc(-c3ccc(-c4ccc(-c5c[nH]c([C@@H](NC(=O)C6(CO)CC(F)(F)C6)C6(C)CC6)n5)cc4)cc3)c[nH]2)CC1 [Compound N-155] | >100 fold |
| COc1ccc(C2(C(=O)N[C@H](c3ncc(-c4ccc(-c5ccc(-c6cnc([C@@H](NC(=O)C7(c8ccc(OC)cc8)CCCC7)C(C)C)[nH]6)cc5)cc4)[nH]3)C(C)C)CCCC2)cc1 [Compound S-24] | >100 fold |
| CC(C)[C@H](NC(=O)[C@@H]1Cc2ccccc21)c1ncc(-c2ccc(-c3ccc(-c4cnc([C@@H](NC(=O)[C@@H]5Cc6ccccc65)C(C)C)[nH]4)cc3)cc2)[nH]1 [Compound P-110] | >100 fold |
| CCCOC(=O)N[C@@H](C(=O)N[C@H](c1ncc(-c2ccc(-c3ccc(-c4cnc([C@@H](NC(=O)[C@H](NC(=O)OCCC)C(C)C)C(C)C)[nH]4)cc3)cc2)[nH]1)C(C)C)C(C)C [Compound S-248] | >100 fold |
